In the supplement of paper PMC10307832:

Tests used:
Test in all cases: relative viability (nuclei count vs DMSO), 5 days (fraction); higher = more cells survive
HCC-78 = tested on: HCC-78
Outline: (§1)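 Cells from lung cancer lines were seeded into 1536-well plates and, one day later, dosed by pin tool. Treatments were either a single drug or a fixed dose of an anchor drug with five library-drug doses (not always all listed) in √10 steps. After 5 days, nuclei were stained in a one-step fixation (final 0.05% Triton X-100, 1% formaldehyde, 1 ug/ml Hoechst) and counted on 4× images, and relative viability is the treated-to-vehicle nuclei ratio, as the median of duplicate plates.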

NCI-H460 = tested on: NCI-H460
Outline: as §1

NCI-H2085 = tested on: NCI-H2085
Outline: as §1

LU99A = tested on: LU99A
Outline: as §1

NCI-H1755 = tested on: NCI-H1755
Outline: as §1

NCI-H650 = tested on: NCI-H650
Outline: as §1

HARA = tested on: HARA
Outline: as §1

PC-3 [JPC-3] = tested on: PC-3 [JPC-3]
Outline: as §1

NCI-H596 = tested on: NCI-H596
Outline: as §1

HCC-366 = tested on: HCC-366
Outline: as §1

NCI-H322M = tested on: NCI-H322M
Outline: as §1

NCI-H2087 = tested on: NCI-H2087
Outline: as §1

NCI-H1651 = tested on: NCI-H1651
Outline: as §1

NCI-H358 = tested on: NCI-H358
Outline: as §1

H3255 = tested on: H3255
Outline: as §1

NCI-H1793 = tested on: NCI-H1793
Outline: as §1

201T = tested on: 201T
Outline: as §1

NCI-H3122 = tested on: NCI-H3122
Outline: as §1

SK-LU-1 = tested on: SK-LU-1
Outline: as §1

COR-L23 = tested on: COR-L23
Outline: as §1

NCI-H23 = tested on: NCI-H23
Outline: as §1

CCNC(=O)c1noc(-c2cc(C(C)C)c(O)cc2O)c1-c1ccc(CN2CCOCC2)cc1 [Luminespib] + C[C@]1(O)C[C@@H](c2nc(-c3ccc4ccc(-c5ccccc5)nc4c3)c3c(N)nccn32)C1 [Linsitinib] (partner 1 µM)
relative viability (HCC-78; first compound 0.002 µM): 0.485
relative viability (HCC-78; first compound 0.06325 µM): 0.76
relative viability (HCC-78; first compound 0.2 µM): 0.251
relative viability (NCI-H460; first compound 0.002 µM): 0.862
relative viability (NCI-H460; first compound 0.006325 µM): 0.64
relative viability (NCI-H460; first compound 0.02 µM): 0.0374
relative viability (NCI-H460; first compound 0.06325 µM): 0.0101
relative viability (NCI-H460; first compound 0.2 µM): 0.0074
relative viability (NCI-H2085; first compound 0.002 µM): 0.405
relative viability (NCI-H2085; first compound 0.006325 µM): 0.76
relative viability (NCI-H2085; first compound 0.02 µM): 0.826
relative viability (NCI-H2085; first compound 0.06325 µM): 0.442
relative viability (NCI-H2085; first compound 0.2 µM): 0.241
relative viability (LU99A; first compound 0.002 µM): 0.574
relative viability (LU99A; first compound 0.006325 µM): 0.486
relative viability (LU99A; first compound 0.02 µM): 0.357
relative viability (LU99A; first compound 0.06325 µM): 0.172
relative viability (LU99A; first compound 0.2 µM): 0.144
relative viability (NCI-H1755; first compound 0.002 µM): 0.974
relative viability (NCI-H1755; first compound 0.006325 µM): 0.944
relative viability (NCI-H1755; first compound 0.02 µM): 0.98
relative viability (NCI-H1755; first compound 0.06325 µM): 0.946
relative viability (NCI-H1755; first compound 0.2 µM): 0.921
relative viability (NCI-H650; first compound 0.002 µM): 0.917
relative viability (NCI-H650; first compound 0.006325 µM): 0.888
relative viability (NCI-H650; first compound 0.02 µM): 0.497
relative viability (NCI-H650; first compound 0.06325 µM): 0.0891
relative viability (NCI-H650; first compound 0.2 µM): 0.117
relative viability (HARA; first compound 0.002 µM): 0.85
relative viability (HARA; first compound 0.006325 µM): 0.797
relative viability (HARA; first compound 0.02 µM): 1.12
relative viability (HARA; first compound 0.06325 µM): 0.738
relative viability (HARA; first compound 0.2 µM): 0.0694
relative viability (PC-3 [JPC-3]; first compound 0.002 µM): 0.963
relative viability (PC-3 [JPC-3]; first compound 0.006325 µM): 0.939
relative viability (PC-3 [JPC-3]; first compound 0.02 µM): 0.991
relative viability (PC-3 [JPC-3]; first compound 0.06325 µM): 0.997
relative viability (PC-3 [JPC-3]; first compound 0.2 µM): 0.897
relative viability (NCI-H596; first compound 0.002 µM): 1.06
relative viability (NCI-H596; first compound 0.006325 µM): 0.995
relative viability (NCI-H596; first compound 0.06325 µM): 1.06
relative viability (NCI-H596; first compound 0.2 µM): 0.907
relative viability (HCC-366; first compound 0.002 µM): 0.56
relative viability (HCC-366; first compound 0.006325 µM): 0.696
relative viability (HCC-366; first compound 0.02 µM): 0.462
relative viability (HCC-366; first compound 0.06325 µM): 0.0199
relative viability (HCC-366; first compound 0.2 µM): 0.0167
relative viability (NCI-H322M; first compound 0.002 µM): 0.805
relative viability (NCI-H322M; first compound 0.006325 µM): 0.851
relative viability (NCI-H322M; first compound 0.02 µM): 0.725
relative viability (NCI-H322M; first compound 0.06325 µM): 0.998
relative viability (NCI-H322M; first compound 0.2 µM): 0.963
relative viability (NCI-H2087; first compound 0.002 µM): 1.01
relative viability (NCI-H2087; first compound 0.006325 µM): 0.714
relative viability (NCI-H2087; first compound 0.02 µM): 1.08
relative viability (NCI-H2087; first compound 0.06325 µM): 0.263
relative viability (NCI-H2087; first compound 0.2 µM): 0.204
relative viability (NCI-H1651; first compound 0.002 µM): 0.874
relative viability (NCI-H1651; first compound 0.006325 µM): 0.983
relative viability (NCI-H1651; first compound 0.02 µM): 1.08
relative viability (NCI-H1651; first compound 0.06325 µM): 0.308
relative viability (NCI-H1651; first compound 0.2 µM): 0.174
relative viability (NCI-H358; first compound 0.002 µM): 0.828
relative viability (NCI-H358; first compound 0.006325 µM): 0.654
relative viability (NCI-H358; first compound 0.02 µM): 0.649
relative viability (NCI-H358; first compound 0.06325 µM): 0.129
relative viability (NCI-H358; first compound 0.2 µM): 0.111
relative viability (H3255; first compound 0.002 µM): 0.929
relative viability (H3255; first compound 0.006325 µM): 0.868
relative viability (H3255; first compound 0.02 µM): 0.65
relative viability (H3255; first compound 0.06325 µM): 0.885
relative viability (H3255; first compound 0.2 µM): 0.228
relative viability (NCI-H1793; first compound 0.002 µM): 0.831
relative viability (NCI-H1793; first compound 0.006325 µM): 0.798
relative viability (NCI-H1793; first compound 0.02 µM): 0.326
relative viability (NCI-H1793; first compound 0.06325 µM): 0.16
relative viability (NCI-H1793; first compound 0.2 µM): 0.147
relative viability (201T; first compound 0.002 µM): 1.03
relative viability (201T; first compound 0.006325 µM): 0.988
relative viability (201T; first compound 0.02 µM): 0.872
relative viability (201T; first compound 0.06325 µM): 1.08
relative viability (201T; first compound 0.2 µM): 1.01
relative viability (NCI-H3122; first compound 0.002 µM): 0.936
relative viability (NCI-H3122; first compound 0.006325 µM): 0.973
relative viability (NCI-H3122; first compound 0.02 µM): 0.945
relative viability (NCI-H3122; first compound 0.06325 µM): 0.172
relative viability (NCI-H3122; first compound 0.2 µM): 0.146
relative viability (SK-LU-1; first compound 0.002 µM): 1.02
relative viability (SK-LU-1; first compound 0.006325 µM): 0.89
relative viability (SK-LU-1; first compound 0.02 µM): 0.474
relative viability (SK-LU-1; first compound 0.06325 µM): 0.193
relative viability (SK-LU-1; first compound 0.2 µM): 0.178
relative viability (COR-L23; first compound 0.002 µM): 0.946
relative viability (COR-L23; first compound 0.006325 µM): 0.811
relative viability (COR-L23; first compound 0.02 µM): 1.03
relative viability (COR-L23; first compound 0.06325 µM): 0.0654
relative viability (COR-L23; first compound 0.2 µM): 0.0696
relative viability (NCI-H23; first compound 0.002 µM): 0.674
relative viability (NCI-H23; first compound 0.006325 µM): 0.55
relative viability (NCI-H23; first compound 0.02 µM): 0.355
relative viability (NCI-H23; first compound 0.06325 µM): 0.172
relative viability (NCI-H23; first compound 0.2 µM): 0.136
